Read-outs that look alike come from different tables or passages of the source.
Assays:
[1] = Apparent permeability assay in biorelevant media (PAMPA); assay type: in vitro ADME; conditions: for PAMPA: optimized ticagrelor model input; for Papp: PAMPA, parallel artificial membrane
Protocol: In light of observed distinctions in the apparent permeability of drugs in biorelevant media compared to standard media, the apparent permeability of ticagrelor in FaSSIF and FeSSIF media was measured using the published method with the parallel artificial membrane. The apparent permeability of rivaroxaban and PB-201 (Drug-A) in biorelevant media was referenced from the published results.

CYP3A4 = CYP3A4 intrinsic clearance fitted in PBPK model; conditions: Fitted to clinical PK profiles
Text: (§1) S2. PBPK model development and validation physicochemical parameters for these three model drugs, including protein binding and Blood-to-Plasma (B/P) ratio, were obtained from experimental results, while log P and pKa were estimated based on the molecular formula using Gastro Plus ADMET software (version 10.3, […]
(§2) S2.1. Rivaroxaban PBPK model development and validation
S2.1.1. Rivaroxaban PBPK model development for metabolism and elimination module Given that the metabolic fractions of CYP3A4 and CYP2J2 to the systemic clearance of rivaroxaban were approximately 18% and 14% [1], respectively, and liver hydrolases contributed to about 14% of its systemic clearance, CLint_CYP3A4, CLint_CYP2J2 and CLHLM were fitted according to the metabolic fraction of rivaroxaban in vivo and concentration-time profiles from the SAD clinical trial in Caucasian subjects under fasted state. Considering that rivaroxaban was a substrate of P-gp transporter, and that about 36% and 7% of the parent drug were directly excreted by the kidney and liver, respectively, rivaroxaban may undergo active efflux through the kidney and liver in vivo [2]. Consequently, permeability-limited kidney and liver models were employed to account for the active efflux mechanism of P-gp for rivaroxaban. These models include both passive diffusion and active transport.
Clearances for passive diffusion in the kidney and liver was calculated using Equation S1 [5] and Equation S2 [6], respectively.
CL௉஽,௜ =2×P௔௣௣ × TSA௜ ሺS1ሻ where CLPD,i is the passive diffusion clearance of the drug in compartment i, Papp is the apparent permeability of the drug, and the TSAi is the regional tubular surface area of compartment i.
Log CL௉஽ =0.82×logD଻.ସ +0.5 ሺS2ሻ where CLPD is the passive diffusional clearance of APIs in the liver, and log D 7.4 is the oil-water partition coefficient at pH 7.4 [6] […]
Blood-to-plasma partition ratio 0.714 Measured
Fraction unbound in plasma 0.065 Measured […]
Caco-2(10-6cm/s) (Rivaroxaban) 8.103 Measured […]

[2] = ticagrelor; supplement ref 17; cited from earlier work
[3] = Dissolution tests of formulations in biorelevant media (USP 2); assay type: physicochemical; conditions: formulation, 500 and 900 mL FaSSIF or FeSSIF media
Protocol: Dissolution tests employing biorelevant media have gained widespread utilization in formulation development, offering valuable insights into the behavior of APIs and their respective formulations within the GI tract. In this study, dissolution behavior was assessed using the calibrated USP 2 apparatus (Pion Scientific Instruments, Billerica, MA, USA) across various media, including FaSSGF, FaSSIF, and FeSSIF. The fasted gastric environment was simulated with 300 mL of FaSSGF medium, while FaSSIF and FeSSIF media were used to mimic the intestinal conditions under fasted and fed states, with volumes of 500 and 900 mL, respectively. Dissolution experiments were conducted at a paddle speed of 75 rpm, with the medium temperature maintained at 37 ± 0.5 °C. Sample concentrations were monitored at 1 min intervals via an in situ fiber-optic UV dissolution real-time monitoring system. All experiments were conducted in triplicate.

CYP2J2 = CYP2J2 intrinsic clearance fitted in PBPK model; conditions: Fitted to in vivo metabolic fraction and SAD C-T profiles
Text: as §1, §2
(§3) S2.1.1. Rivaroxaban PBPK model development for metabolism and elimination module […]
(§4) its systemic clearance, CLint_CYP3A4, CLint_CYP2J2 and CLHLM were fitted according to the metabolic fraction of rivaroxaban in vivo and concentration-time profiles from the SAD clinical trial in Caucasian subjects under fasted state. […]
(§5) permeability-limited kidney and liver models were employed to account for the active efflux […]
(§6) Physicochemical properties

ABCB1 (P-gp/MDR1) = experiment: P-gp efflux clearance in kidney and liver fitted in PBPK model; conditions: human, permeability-limited liver model, Canalicular, read-out: CLint,T
Text: as §1, §2, §3, §4, §5, §6

[4] = Passive diffusion clearance and unbound fractions of permeability-limited kidney and liver models; conditions: Liver, Fitted
Text: as §1, §2, §3, §4, §5, §6

[5] = parameters: method as in earlier work; conditions: optimized rivaroxaban model input, cited from earlier work
[6] = in vivo, cited from earlier work

PAMPA ([1]; Fasted (FaSSIF))	PAMPA ([1]; Fed (FeSSIF))	Papp ([1]; FaSSIF) [×10⁻⁶ cm/s]	Papp ([1]; FeSSIF) [×10⁻⁶ cm/s]	Intrinsic clearance of CYP 3A4 (CYP3A4) [µL/min/pmol]	dissolution percentages [3]	Intrinsic clearance of CYP 2J2 (CYP2J2) [µL/min/pmol]	hepatocyte CLint (ABCB1 (P-gp/MDR1)) [µL/min/1e6 cells]	fuIW [4]	SMILES	CLR typical renal clearance [2] [L/h]	PAMPA ([5]; Fasted (FaSSIF))	PAMPA ([5]; Fed (FeSSIF))	metabolic fraction of CYP2J2 to the systemic clearance ([6]; supplement ref 1)	metabolic fraction of CYP3A4 to the systemic clearance ([6]; supplement ref 1)	parent drug directly excreted by the kidney ([6]; supplement ref 1)	parent drug directly excreted by the liver ([6]; supplement ref 1) [%]	contribution of liver hydrolases to systemic clearance ([6]; supplement ref 2)
90.2 10E-06 cm/s	14.30 10E-06 cm/s	90.2	14.3	5.00	–	–	–	–	CCCSc1nc(N[C@@H]2C[C@H]2c2ccc(F)c(F)c2)c2nnn([C@@H]3C[C@H](OCCO)[C@@H](O)[C@H]3O)c2n1 [Ticagrelor]	0.00584	–	–	–	–	–	–	–
–	–	–	–	0.027	below 80%	2.500	0.03	0.193	O=C(NC[C@H]1CN(c2ccc(N3CCOCC3=O)cc2)C(=O)O1)c1ccc(Cl)s1 [Rivaroxaban]	–	52.6 10E-06 cm/s	40.80 10E-06 cm/s	about 14%	approximately 18%	about 36%	~7	about 14%
